Like-named read-outs stand apart in the source and are kept apart here.
Settings: for % Dissolution: 200 mg in 900 ml 0.1 N HCl, 37.0°C, 75 rpm
Method: 200mg of cinacalcet HCl of different D50 values was dropped into a vessel containing 900 ml of dissolution medium (0.1 N HCl) at 37.0+/−0.5° C. and stirred at 75 rpm.

Structure (SMILES): C[C@@H](NCCCc1cccc(C(F)(F)F)c1)c1cccc2ccccc12.Cl [cinacalcet HCl]
- solubility (dissolution) compared with larger particle sizes: much lower solubility
- % Dissolution (D50 = 20 μm, 0 min, D50 = 89 μm after 60 min set to 100%): 0%
- % Dissolution (D50 = 20 μm, 15 min, D50 = 89 μm after 60 min set to 100%): 24%
- % Dissolution (D50 = 20 μm, 30 min, D50 = 89 μm after 60 min set to 100%): 52%
- % Dissolution (D50 = 20 μm, 45 min, D50 = 89 μm after 60 min set to 100%): 74%
- % Dissolution (D50 = 20 μm, 60 min, D50 = 89 μm after 60 min set to 100%): 86%
- % Dissolution (D50 = 82 μm, 0 min, D50 = 89 μm after 60 min set to 100%): 0%
- % Dissolution (D50 = 82 μm, 15 min, D50 = 89 μm after 60 min set to 100%): 90%
- % Dissolution (D50 = 82 μm, 30 min, D50 = 89 μm after 60 min set to 100%): 96%
- % Dissolution (D50 = 82 μm, 45 min, D50 = 89 μm after 60 min set to 100%): 98%
- % Dissolution (D50 = 82 μm, 60 min, D50 = 89 μm after 60 min set to 100%): 98%
- % Dissolution (D50 = 89 μm, 0 min, D50 = 89 μm after 60 min set to 100%): 0%
- % Dissolution (D50 = 89 μm, 15 min, D50 = 89 μm after 60 min set to 100%): 87%
- % Dissolution (D50 = 89 μm, 30 min, D50 = 89 μm after 60 min set to 100%): 98%
- % Dissolution (D50 = 89 μm, 45 min, D50 = 89 μm after 60 min set to 100%): 99%
- % Dissolution (D50 = 89 μm, 60 min, set to 100%): 100%
